Measurements taken from PMC10102027, “Helquat dyes targeting G-quadruplexes as a new class of anti-HIV-1 inhibitors” (Scientific Reports, 2023).

Experiments:
Type in all cases: cell-based
[1] = in vitro; details: human
Excerpt: (§1) Based on a facile [2 + 2 + 2]‐cycloisomerization strategy, a robust three‐step synthetic entry into a novel family of helical extended diquats (helquats) was developed. After a straightforward Knoevenagel condensation of the respective helquat parent with different aldehydes (Fig. 2A), more than 500 helquat-based compounds were synthesized and screened for anti-HIV-1 activity in an assay based on the inhibition of the virus-induced cytopathic effect in MT-4 cells, evaluated after 5 days post-infection by an XTT assay. In parallel with the screening, the XTT assay was also used to determine the cytotoxicity of all compounds (Fig. 2B; for more information on the synthesis and characterization of the compounds, see the Supplementary Information). […]
(§2) XTT screening. MT-4 cells were seeded in 80 µl of the RPMI without Phenol Red in the amount of 3x10^4 cells per well of a 96-well plate. 10 µl of tested compounds (500 µM at 5% DMSO) or controls (5% DMSO at PBS, AZT 1mM, SQV 100 µM) were added to the cells; after one-hour incubation at 37 °C, HIV-1 (NL4-3 strain) was added with MOI = 0.05 and the infected cells were cultivated for five days.
(§3) The viability of the cells was measured by the XTT cell viability and proliferation assay. Briefly, 50 µl of the XTT solution with the addition of PMS (both VWR) was added to the cultivation media and incubated in a humidified incubator maintained at 37 °C with 5% CO2 for four hours, after which absorbance at 560 nm was measured on a VICTOR plate reader (PerkinElmer).
The cytotoxicity of the tested compounds was evaluated separately without virus addition and analysed by the same assay.
(§4) For compounds selected as hits in the initial screening, the effective concentration that inhibits 50% of the viral activity (EC50) and the cytotoxic concentration that reduces the MT -4 cell viability by 50% (CC50) were determined. Viral activity was evaluated after five days as an HIV-1-induced cytopathic effect quantified by the XTT assay. Selected hits were tested at two-fold serial dilutions from 50 µM concentration, and the drug concentrations required to reduce the viral cytopathic effect by 50% (EC 50) as well as the drug concentrations that reduced MT-4 cell viability by 50% (CC50) were calculated by nonlinear regression using GraphPad Prism v.8.0.0 (GraphPad Software).

[2] = tested on: HIV-1; assay: Adsorption assay (RT activity in supernatant); details: 10 µM, compound and virions added to MT-4 cells simultaneously, washed out after 2 h, RT activity 5 days after infection
Procedure: (§5) To address virion binding and entry in a competitive setting, we performed an adsorption assay where test compounds and virions were added to MT-4 cells simultaneously and were washed out after 2 h of incubation. In parallel, we performed a replication assay where MT-4 cells were infected with HIV-1 and the tested compounds were added 1 h later. In both cases, the infection was evaluated by measuring reverse transcriptase activity in a cell-free supernatant 5 days after the infection (Fig. 3). As controls, PBS (phosphate-buffered saline) and inhibitors of different HIV-1 life-cycle steps were used: AMD (AMD3100), an inhibitor of gp120 attachment to CXCR4 receptors of the target cell, thus preventing HIV-1 adsorption and entry; AZT (azidothymidine), an inhibitor of reverse transcriptase; and RAL (raltegravir), an integrase inhibitor.
(§6) MT-4 cells were seeded in 80 µl of the Roswell Park Memorial Institute (RPMI) medium in the amount of 2 × 10^5 cells per well of a 96-well plate, and 10 µl of the virus stock were immediately added with the final multiplicity of infection (MOI) of 0.05. For a replication assay, the infected cells were incubated at 37 °C for 1 h before the addition of compounds being tested (10 µM final concentration) and subsequently cultivated at 37 °C for another 5 days. For an adsorption test, by contrast, the compounds (10 µM final concentration) were added simultaneously with the virus, and after 2 h of incubation, the cells were washed three times with PBS to remove the compounds and unbound virions; after the addition of 100 µl of the RPMI medium, the cells were cultivated at 37 °C for 5 days. Five days post-infection, aliquots of virus-containing cell-free supernatants were harvested and analysed by reverse transcriptase (RT) assay (described in the Supplementary Information). The experiments were performed as biological replicates where the sample size for each condition was n = 3.
(§7) RT assay. The reverse transcriptase (RT) activity in a cell-free supernatant was assessed by an α-32P RT assay. Briefly, the RT activity in the culture medium, which corresponded to the amount of HIV-1, was used to produce a DNA copy of an RNA template by extending a complementary oligo dT DNA primer with radiolabelled nucleotides. A reaction mixture containing 50 mM Tris-HCl pH 7.8, 75 mM KCl, 2 mM DTT, 5 mM MgCl2 and 0.5% NP-40 (all Sigma-Aldrich), 5 µg per ml of poly (rA)-poly (dT) (The Midlan Certified Reagent Company) with 1 µl 10-mCi/ml [α-32P]dTTP (American Radiolabeled Chemicals) per ml, and the tested sample was incubated at 37°C for two hours, after which 10 µl were spotted on DEAE blotting paper (PerkinElmer) and air-dried. After five washes with SSC buffer (0.15 M NaCl, 0.015 M sodium citrate) and three additional washes with 85% ethanol, the blotting paper was exposed to Phosphoscreen overnight, which was scanned on a Typhoon 9410 Phosphorimager instrument (GE Healthcare). The intensity of the dots was analysed by the ImageQuant software (GE Healthcare).

[3] = tested on: HIV-1 (NL4-3 strain); assay: CPE-based antiviral assay in HIV-1-infected MT-4 cells (XTT); details: Human immunodeficiency virus 1, NL43, MT4, 120 h, cytopathic effect-based assay, MT-4 cells infected by HIV-1 (NL4-3 strain), 5 days post-infection
Excerpt: as §1, §2
as §3, with “(PerkinElmer). […]” for “(PerkinElmer).”
as §4

[4] = tested on: HIV-1; assay: Replication assay (RT activity in supernatant); details: 10 µM, compound added 1 h after infection of MT-4 cells, RT activity 5 days after infection
Procedure: as §5, §6, §7

| SMILES | CC50 at 5 days [1] | effect on virus adsorption [2] | EC50 [3] | effect on viral replication [4] |
| --- | --- | --- | --- | --- |
| CN1/C(=C/c2cc3[n+](c4ccccc24)CCCc2ccc4c(c2-3)-c2cccc[n+]2CCC4)Sc2ccccc21 [Compound 2] | 24.4 µM | inhibited adsorption | < 1 µM | – |
| Cc1c(C)c2c(c3c1CC[n+]1ccc(/C=C/c4ccc(-c5ccccc5)s4)cc1-3)-c1cc(/C=C/c3ccc(-c4ccccc4)s3)cc[n+]1CC2 [Compound 11] | > 50 µM | inhibited adsorption | 2.64 µM | – |
| C(=C\c1cccc2[n+]1CCc1ccc3c(c1-2)-c1cccc(/C=C/c2ccc(C(=C(c4ccccc4)c4ccccc4)c4ccccc4)cc2)[n+]1CC3)/c1ccc(C(=C(c2ccccc2)c2ccccc2)c2ccccc2)cc1 [Compound 4] | > 50 µM | inhibited adsorption | 1.51 µM | – |
| COc1ccc(/C=C/c2cc[n+]3c(c2)-c2c(c(C)c(C)c4c2-c2cc(/C=C/c5ccc(OC)c6ccccc56)cc[n+]2CC4)CC3)c2ccccc12 [Compound 19] | > 50 µM | inhibited neither adsorption nor replication, or their effect was weak | 3.39 µM | inhibited neither adsorption nor replication, or their effect was weak |
| Cc1c(C)c2c(c3c1CC[n+]1ccc(/C=C/c4ccc(N(C)C)cc4)cc1-3)-c1cc(/C=C/c3ccc(N(C)C)cc3)cc[n+]1CC2 [Compound 8] | > 50 µM | inhibited adsorption | 1.79 µM | – |
| Cn1c(/C=C/c2cccc3[n+]2CCc2ccc4c(c2-3)-c2cccc(/C=C/c3cc5ccccc5n3C)[n+]2CC4)cc2ccccc21 [Compound 9] | > 50 µM | inhibited adsorption | 1.96 µM | – |
| Cc1c(C)c2c(c3c1CC[n+]1ccc(/C=C/c4c[nH]c5ccc(Br)cc45)cc1-3)-c1cc(/C=C/c3c[nH]c4ccc(Br)cc34)cc[n+]1CC2 [Compound 17] | > 50 µM | inhibited neither adsorption nor replication, or their effect was weak | 3.01 µM | inhibited neither adsorption nor replication, or their effect was weak |
| CN1/C(=C/c2cccc3[n+]2CCCc2ccc4c(c2-3)-c2cccc(/C=C3\Sc5ccccc5N3C)[n+]2CCC4)Sc2ccccc21 [Compound 10] | > 50 µM | inhibited neither adsorption nor replication, or their effect was weak | 2.18 µM | inhibited neither adsorption nor replication, or their effect was weak |
| Cc1c(C)c2c(c3c1CC[n+]1ccc(/C=C/c4ccc5c(c4)CCO5)cc1-3)-c1cc(/C=C/c3ccc4c(c3)CCO4)cc[n+]1CC2 [Compound 5] | > 50 µM | inhibited neither adsorption nor replication, or their effect was weak | 1.67 µM | inhibited neither adsorption nor replication, or their effect was weak |
| Cc1c(C)c2c(c3c1CC[n+]1ccc(/C=C/c4c5ccccc5c(C)c5ccccc45)cc1-3)-c1cc(/C=C/c3c4ccccc4c(C)c4ccccc34)cc[n+]1CC2 [Compound 1] | > 50 µM | inhibited neither adsorption nor replication, or their effect was weak | < 1 µM | inhibited neither adsorption nor replication, or their effect was weak |
| COc1ccc(/C=C/c2cc[n+]3c(c2)-c2c(c(C)c(C)c4c2-c2cc(/C=C/c5ccc(OC)cc5OC)cc[n+]2CC4)CC3)c(OC)c1 [Compound 13] | > 50 µM | inhibited neither adsorption nor replication, or their effect was weak | 2.69 µM | inhibited neither adsorption nor replication, or their effect was weak |
| C(=C\c1cc2ccccc2[nH]1)/c1cc[n+]2c(c1)-c1c(ccc3c1-c1cccc[n+]1CCC3)CCC2 [Compound 7] | > 50 µM | minimal or no effect on virus adsorption | 1.79 µM | significantly impairing viral replication |
| Cc1c(C)c2c(c3c1CC[n+]1ccc(/C=C/c4c[nH]c5ccccc45)cc1-3)-c1cc(/C=C/c3c[nH]c4ccccc34)cc[n+]1CC2 [Compound 18] | > 50 µM | inhibited neither adsorption nor replication, or their effect was weak | 3.18 µM | inhibited neither adsorption nor replication, or their effect was weak |
